Data: ChEMBL document CHEMBL1201861, “Genomics of Drug Sensitity in Cancer screening data, Wellcome Trust Sanger Institute”
pIC50: −log10 of the molar value.

Tests used:
Format in all cases: functional, cell-based
CP67-MEL = assay: SANGER: Inhibition of human CP67-MEL cell growth in a cell viability assay.
SKM-1 = assay: SANGER: Inhibition of human SKM-1 cell growth in a cell viability assay.
RL95-2 = assay: cells; conditions: Homo sapiens;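 note: RL95-2 growth inhibition determined through a cell viability readout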
Description: SANGER: Inhibition of human RL95-2 cell growth in a cell viability assay.

KP-N-RT-BM-1 = assay: SANGER: Inhibition of human KP-N-RT-BM-1 cell growth in a cell viability assay.
NCI-H128 = assay: SANGER: Inhibition of human NCI-H128 cell growth in a cell viability assay.
EW-12 = assay: SANGER: Inhibition of human EW-12 cell growth in a cell viability assay.
NCI-H2107 = assay: SANGER: Inhibition of human NCI-H2107 cell growth in a cell viability assay.
H-EMC-SS = assay: cells; conditions: Homo sapiens
Description: SANGER: Inhibition of human H-EMC-SS cell growth in a cell viability assay.

NCI-H1666 = assay: cells; conditions: Homo sapiens;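 note: growth inhibition of the cell line, read out with a cell viability assay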
Description: SANGER: Inhibition of human NCI-H1666 cell growth in a cell viability assay.

NCI-H2029 = assay: cells; conditions: Homo sapiens;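 note: Read-out is a viability assay on the cultured cells, and IC50 is the concentration that suppresses cell growth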
Description: SANGER: Inhibition of human NCI-H2029 cell growth in a cell viability assay.

OC-314 = assay: cells; conditions: Homo sapiens
Description: SANGER: Inhibition of human OC-314 cell growth in a cell viability assay.

ZR-75-30 = assay: cells; conditions: Homo sapiens;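 note: growth inhibition of ZR-75-30 cells, measured with a cell viability readout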
Description: SANGER: Inhibition of human ZR-75-30 cell growth in a cell viability assay.

SW 1116 = assay: cells; conditions: Homo sapiens;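 note: growth inhibition of SW1116 cells, read out with a cell viability assay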
Description: SANGER: Inhibition of human SW1116 cell growth in a cell viability assay.

YH-13 = assay: cells; conditions: Homo sapiens;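 note: cell viability readout of growth suppression in the human YH-13 cell line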
Description: SANGER: Inhibition of human YH-13 cell growth in a cell viability assay.

H9 = assay: cells; conditions: Homo sapiens
Description: SANGER: Inhibition of human H9 cell growth in a cell viability assay.

NCI-H2291 = assay: cells; conditions: Homo sapiens
Description: SANGER: Inhibition of human NCI-H2291 cell growth in a cell viability assay.

TGBC11TKB = assay: cells; conditions: Homo sapiens;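 note: growth inhibition of human TGBC11TKB cells, measured by a cell viability assay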
Description: SANGER: Inhibition of human TGBC11TKB cell growth in a cell viability assay.

TI-73 = assay: cells; conditions: Homo sapiens;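 note: cell viability assay measuring how much compounds suppress growth of the cultured cell line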
Description: SANGER: Inhibition of human TI-73 cell growth in a cell viability assay.

NCI-H1048 = assay: cells; conditions: Homo sapiens;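 note: growth inhibition of human NCI-H1048 cells, read out with a cell viability assay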
Description: SANGER: Inhibition of human NCI-H1048 cell growth in a cell viability assay.

RH-18 = assay: cells; conditions: Homo sapiens, Rh18;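 note: growth inhibition of human RH-18 cells, read out with a cell viability assay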
Description: SANGER: Inhibition of human RH-18 cell growth in a cell viability assay.

KNS-62 = assay: cells; conditions: Homo sapiens;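 note: inhibition of cell growth, read out with a cell viability assay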
Description: SANGER: Inhibition of human KNS-62 cell growth in a cell viability assay.

BALL-1 = assay: cells; conditions: Homo sapiens;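 note: growth inhibition of BALL-1 cells, read out with a cell viability assay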
Description: SANGER: Inhibition of human BALL-1 cell growth in a cell viability assay.

SW900 = assay: cells; conditions: Homo sapiens;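 note: IC50 is the concentration that inhibits SW900 cell growth, measured by a cell viability assay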
Description: SANGER: Inhibition of human SW900 cell growth in a cell viability assay.

BT-549 = assay: cells; conditions: Homo sapiens
Description: SANGER: Inhibition of human BT-549 cell growth in a cell viability assay.

D-566MG = assay: cells; conditions: Homo sapiens
EPLC-272H = assay: cells; conditions: Homo sapiens
Description: SANGER: Inhibition of human EPLC-272H cell growth in a cell viability assay.

NBsusSR = assay: cells; conditions: Homo sapiens;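 note: growth inhibition of the human cell line, read out with a cell viability assay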
Description: SANGER: Inhibition of human NBsusSR cell growth in a cell viability assay.

LU-135 = assay: cells; conditions: Homo sapiens
Description: SANGER: Inhibition of human LU-135 cell growth in a cell viability assay.

Calu-1 = assay: SANGER: Inhibition of human Calu-1 cell growth in a cell viability assay.
TT = assay: cells; conditions: Homo sapiens
Description: SANGER: Inhibition of human TT cell growth in a cell viability assay.

NCI-H1734 = assay: cells; conditions: Homo sapiens;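 note: growth inhibition of human NCI-H1734 cells, read out with a cell viability assay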
Description: SANGER: Inhibition of human NCI-H1734 cell growth in a cell viability assay.

IPC-298 = assay: SANGER: Inhibition of human IPC-298 cell growth in a cell viability assay.
HCC1143 = assay: cells; conditions: Homo sapiens;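 note: growth inhibition of human HCC1143 cells, read out with a cell viability assay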
Description: SANGER: Inhibition of human HCC1143 cell growth in a cell viability assay.

MFE-296 = assay: SANGER: Inhibition of human MFE-296 cell growth in a cell viability assay.
EFE-184 = assay: cells; conditions: Homo sapiens
Description: SANGER: Inhibition of human EFE-184 cell growth in a cell viability assay.

EW-7 = assay: SANGER: Inhibition of human EW-7 cell growth in a cell viability assay.
PLC-PRF-5 = assay: cells; conditions: Homo sapiens;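 note: growth inhibition of human PLC-PRF-5 cells, read out with a viability assay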
Description: SANGER: Inhibition of human PLC-PRF-5 cell growth in a cell viability assay.

NCI-H2227 = assay: cells; conditions: Homo sapiens;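 note: growth inhibition of the human cell line, read out with a cell viability assay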
Description: SANGER: Inhibition of human NCI-H2227 cell growth in a cell viability assay.

DV-90 = assay: cells; conditions: Homo sapiens;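 note: Read-out is a viability assay, with IC50 reflecting the drop in DV-90 cell growth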
Description: SANGER: Inhibition of human DV-90 cell growth in a cell viability assay.

COLO 205 = assay: cells; conditions: Homo sapiens
Description: SANGER: Inhibition of human COLO-205 cell growth in a cell viability assay.

NCI-H838 = assay: cells; conditions: Homo sapiens;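 note: growth inhibition of human NCI-H838 cells, read out by a cell viability assay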
Description: SANGER: Inhibition of human NCI-H838 cell growth in a cell viability assay.

MDA-MB-468 = assay: cells; conditions: Homo sapiens
Description: SANGER: Inhibition of human MDA-MB-468 cell growth in a cell viability assay.

SNU-475 = assay: cells; conditions: Homo sapiens
Description: SANGER: Inhibition of human SNU-475 cell growth in a cell viability assay.

MES-SA = assay: cells; conditions: Homo sapiens;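 note: growth inhibition of human MES-SA cells, read out with a cell viability assay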
Description: SANGER: Inhibition of human MES-SA cell growth in a cell viability assay.

SK-CO-1 = assay: cells; conditions: Homo sapiens;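 note: growth inhibition of SK-CO-1 cells, determined by a viability readout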
Description: SANGER: Inhibition of human SK-CO-1 cell growth in a cell viability assay.

DMS-53 = assay: cells; conditions: Homo sapiens;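 note: cell viability assay measuring growth inhibition of human DMS-53 cells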
Description: SANGER: Inhibition of human DMS-53 cell growth in a cell viability assay.

Caov-3 cell line = assay: cells; conditions: Homo sapiens;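 note: cell growth inhibition read out by a viability assay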
Description: SANGER: Inhibition of human Caov-3 cell growth in a cell viability assay.

RT-4 = assay: SANGER: Inhibition of human RT4 cell growth in a cell viability assay.
SNG-M = assay: cells; conditions: Homo sapiens
Description: SANGER: Inhibition of human SNG-M cell growth in a cell viability assay.

CCF-STTG1 = assay: cells; conditions: Homo sapiens;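 note: growth inhibition of human CCF-STTG1 cells, determined with a cell viability read-out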
Description: SANGER: Inhibition of human CCF-STTG1 cell growth in a cell viability assay.

C-4-II = assay: SANGER: Inhibition of human C-4-II cell growth in a cell viability assay.

Cc1nc(Nc2ncc(C(=O)Nc3c(C)cccc3Cl)s2)cc(N2CCN(CCO)CC2)n1 [DASATINIB]
pIC50 (CP67-MEL): 6.69 | pIC50 (SKM-1): < 5.89 | pIC50 (RL95-2): 6.98 | pIC50 (KP-N-RT-BM-1): < 5.89 | pIC50 (NCI-H128): < 5.89 | pIC50 (EW-12): < 5.89 | pIC50 (NCI-H2107): < 5.89

C[C@]1(c2nc3c(C(N)=O)cccc3[nH]2)CCCN1 [VELIPARIB]
pIC50 (H-EMC-SS): < 5.30 | pIC50 (NCI-H1666): < 5.30 | pIC50 (NCI-H2029): < 5.30 | pIC50 (OC-314): < 5.30 | pIC50 (ZR-75-30): < 5.30 | pIC50 (SW 1116): < 5.30 | pIC50 (YH-13): < 5.30 | pIC50 (H9): < 5.30 | pIC50 (NCI-H2291): < 5.30 | pIC50 (TGBC11TKB): < 5.30 | pIC50 (TI-73): < 5.30 | pIC50 (NCI-H1048): < 5.30 | pIC50 (RH-18): < 5.30 | pIC50 (KNS-62): < 5.30 | pIC50 (BALL-1): < 5.30 | pIC50 (SW900): < 5.30 | pIC50 (BT-549): < 5.30 | pIC50 (D-566MG): < 5.30 | pIC50 (EPLC-272H): < 5.30 | pIC50 (NBsusSR): < 5.30 | pIC50 (LU-135): < 5.30

CCNC(=O)c1noc(-c2cc(C(C)C)c(O)cc2O)c1-c1ccc(CN2CCOCC2)cc1 [LUMINESPIB]
pIC50 (Calu-1): 7.13 | pIC50 (TT): < 6.59 | pIC50 (NCI-H1734): 7.49 | pIC50 (IPC-298): 7.02 | pIC50 (HCC1143): < 6.59 | pIC50 (MFE-296): 7.63 | pIC50 (EFE-184): 6.61 | pIC50 (EW-7): 8.12 | pIC50 (PLC-PRF-5): < 6.59 | pIC50 (NCI-H2227): < 6.59 | pIC50 (DV-90): < 6.59 | pIC50 (COLO 205): 7.31 | pIC50 (NCI-H838): 6.62 | pIC50 (MDA-MB-468): 7.00 | pIC50 (SNU-475): < 6.59 | pIC50 (MES-SA): 8.34 | pIC50 (SK-CO-1): 7.10 | pIC50 (DMS-53): 6.91 | pIC50 (Caov-3 cell line): < 6.59 | pIC50 (RT-4): < 6.59 | pIC50 (SNG-M): 8.07 | pIC50 (CCF-STTG1): 8.53 | pIC50 (C-4-II): 6.91

Cc1n[nH]c2ccc(-c3cncc(OC[C@@H](N)Cc4c[nH]c5ccccc45)c3)cc12 [A-443654]
pIC50 (CP67-MEL): 6.50 | pIC50 (SKM-1): < 5.99 | pIC50 (RL95-2): 7.64 | pIC50 (KP-N-RT-BM-1): 6.04 | pIC50 (NCI-H128): < 5.99 | pIC50 (EW-12): < 5.99 | pIC50 (NCI-H2107): 6.02

CC(O)(CS(=O)(=O)c1ccc(F)cc1)C(=O)Nc1ccc(C#N)c(C(F)(F)F)c1 (stereo not given) [BICALUTAMIDE]
pIC50 (Calu-1): < 5.99 | pIC50 (TT): < 5.99 | pIC50 (NCI-H1734): < 5.99 | pIC50 (IPC-298): < 5.99 | pIC50 (HCC1143): < 5.99 | pIC50 (MFE-296): < 5.99 | pIC50 (EFE-184): < 5.99 | pIC50 (EW-7): < 5.99 | pIC50 (PLC-PRF-5): < 5.99 | pIC50 (NCI-H2227): < 5.99 | pIC50 (DV-90): < 5.99 | pIC50 (COLO 205): < 5.99 | pIC50 (NCI-H838): < 5.99 | pIC50 (MDA-MB-468): < 5.99 | pIC50 (SNU-475): < 5.99 | pIC50 (MES-SA): < 5.99 | pIC50 (SK-CO-1): < 5.99 | pIC50 (DMS-53): < 5.99 | pIC50 (Caov-3 cell line): < 5.99 | pIC50 (RT-4): < 5.99 | pIC50 (SNG-M): < 5.99 | pIC50 (CCF-STTG1): < 5.99 | pIC50 (C-4-II): < 5.99

CC[C@@]1(O)C(=O)OCc2c1cc1n(c2=O)Cc2cc3ccccc3nc2-1 [CAMPTOTHECIN]
pIC50 (H-EMC-SS): 7.02 | pIC50 (NCI-H1666): 7.73 | pIC50 (OC-314): 8.60 | pIC50 (YH-13): 7.93 | pIC50 (H9): 9.45 | pIC50 (NCI-H2291): < 7.00 | pIC50 (TGBC11TKB): 7.91 | pIC50 (TI-73): 7.84 | pIC50 (NCI-H1048): 9.28 | pIC50 (KNS-62): 8.11 | pIC50 (SW900): 7.50 | pIC50 (BT-549): 7.75 | pIC50 (D-566MG): 9.88 | pIC50 (EPLC-272H): 7.14 | pIC50 (NBsusSR): 9.71 | pIC50 (LU-135): 7.55

N#C/C(=C1/Nc2ccccc2S1)c1ccnc(NCCc2cccnc2)n1
pIC50 (Calu-1): < 5.10 | pIC50 (TT): < 5.10 | pIC50 (NCI-H1734): < 5.10 | pIC50 (IPC-298): 5.13 | pIC50 (HCC1143): 5.38 | pIC50 (MFE-296): 5.81 | pIC50 (EFE-184): 5.33 | pIC50 (EW-7): < 5.10 | pIC50 (PLC-PRF-5): < 5.10 | pIC50 (NCI-H2227): < 5.10 | pIC50 (DV-90): < 5.10 | pIC50 (COLO 205): < 5.10 | pIC50 (NCI-H838): < 5.10 | pIC50 (MDA-MB-468): < 5.10 | pIC50 (SNU-475): < 5.10 | pIC50 (MES-SA): 5.33 | pIC50 (SK-CO-1): < 5.10 | pIC50 (DMS-53): < 5.10 | pIC50 (Caov-3 cell line): < 5.10 | pIC50 (RT-4): < 5.10 | pIC50 (SNG-M): 6.01 | pIC50 (CCF-STTG1): 5.19 | pIC50 (C-4-II): < 5.10
